Measured values: patent publication US7118895B2, “Process for producing aglycon by using diglycosidase and flavor-improved food containing the aglycon and converting agent to be used in the process” (Amano Enzyme Inc., priority 2000, dated 2006)

Test system: Crude diglycosidase
Test: Examination of substrate concentration in the conversion into isoflavone aglycons by diglycosidase using soybean materials;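 note: percent of the isoflavone family total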
Assay type: biochemical, Penicillium multicolor IAM7153
Summary of the method: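 Reaction at 55° C, shaken, pH 4.0 (20 mM acetate), using crude diglycosidase from a 1.88 AU/mL enzyme solution on soy flour, soymilk, defatted soybean or soy protein concentrate at 2, 5, 10, 20 or 30% (w/v). Isoflavone aglycons quantified by HPLC of ethanol extracts at 0, 1, 3, 6 h.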

COc1cc2c(=O)c(-c3ccc(O)cc3)coc2cc1O [glycitein]
Decomposition efficiency: ratio of each glycoside/aglycon within its isoflavone family (concentrated soybean protein, substrate concentration 2%, heat treatment of enzyme no, reaction time 0 h): 11.6%
Decomposition efficiency: ratio of each glycoside/aglycon within its isoflavone family (concentrated soybean protein, substrate concentration 2%, heat treatment of enzyme no, reaction time 1 h): 85.3%
Decomposition efficiency: ratio of each glycoside/aglycon within its isoflavone family (concentrated soybean protein, substrate concentration 2%, heat treatment of enzyme no, reaction time 3 h): 94.4%
Decomposition efficiency: ratio of each glycoside/aglycon within its isoflavone family (concentrated soybean protein, substrate concentration 2%, heat treatment of enzyme no, reaction time 6 h): 100.0%
Decomposition efficiency: ratio of each glycoside/aglycon within its isoflavone family (concentrated soybean protein, substrate concentration 2%, heat treatment of enzyme yes, reaction time 6 h): 11.2%
Decomposition efficiency: ratio of each glycoside/aglycon within its isoflavone family (concentrated soybean protein, substrate concentration 5%, heat treatment of enzyme no, reaction time 0 h): 11.2%
Decomposition efficiency: ratio of each glycoside/aglycon within its isoflavone family (concentrated soybean protein, substrate concentration 5%, heat treatment of enzyme no, reaction time 1 h): 72.4%
Decomposition efficiency: ratio of each glycoside/aglycon within its isoflavone family (concentrated soybean protein, substrate concentration 5%, heat treatment of enzyme no, reaction time 3 h): 81.9%
Decomposition efficiency: ratio of each glycoside/aglycon within its isoflavone family (concentrated soybean protein, substrate concentration 5%, heat treatment of enzyme no, reaction time 6 h): 87.4%
Decomposition efficiency: ratio of each glycoside/aglycon within its isoflavone family (concentrated soybean protein, substrate concentration 5%, heat treatment of enzyme yes, reaction time 6 h): 11.3%
Decomposition efficiency: ratio of each glycoside/aglycon within its isoflavone family (concentrated soybean protein, substrate concentration 10%, heat treatment of enzyme no, reaction time 0 h): 11.0%
Decomposition efficiency: ratio of each glycoside/aglycon within its isoflavone family (concentrated soybean protein, substrate concentration 10%, heat treatment of enzyme no, reaction time 1 h): 66.8%
Decomposition efficiency: ratio of each glycoside/aglycon within its isoflavone family (concentrated soybean protein, substrate concentration 10%, heat treatment of enzyme no, reaction time 3 h): 73.5%
Decomposition efficiency: ratio of each glycoside/aglycon within its isoflavone family (concentrated soybean protein, substrate concentration 10%, heat treatment of enzyme no, reaction time 6 h): 75.8%
Decomposition efficiency: ratio of each glycoside/aglycon within its isoflavone family (concentrated soybean protein, substrate concentration 10%, heat treatment of enzyme yes, reaction time 6 h): 11.1%
Decomposition efficiency: ratio of each glycoside/aglycon within its isoflavone family (concentrated soybean protein, substrate concentration 20%, heat treatment of enzyme no, reaction time 0 h): 10.8%
Decomposition efficiency: ratio of each glycoside/aglycon within its isoflavone family (concentrated soybean protein, substrate concentration 20%, heat treatment of enzyme no, reaction time 1 h): 51.2%
Decomposition efficiency: ratio of each glycoside/aglycon within its isoflavone family (concentrated soybean protein, substrate concentration 20%, heat treatment of enzyme no, reaction time 3 h): 66.2%
Decomposition efficiency: ratio of each glycoside/aglycon within its isoflavone family (concentrated soybean protein, substrate concentration 20%, heat treatment of enzyme no, reaction time 6 h): 69.2%
Decomposition efficiency: ratio of each glycoside/aglycon within its isoflavone family (concentrated soybean protein, substrate concentration 20%, heat treatment of enzyme yes, reaction time 6 h): 11.1%
Decomposition efficiency: ratio of each glycoside/aglycon within its isoflavone family (concentrated soybean protein, substrate concentration 30%, heat treatment of enzyme no, reaction time 0 h): 8.2%
Decomposition efficiency: ratio of each glycoside/aglycon within its isoflavone family (concentrated soybean protein, substrate concentration 30%, heat treatment of enzyme no, reaction time 1 h): 61.5%
Decomposition efficiency: ratio of each glycoside/aglycon within its isoflavone family (concentrated soybean protein, substrate concentration 30%, heat treatment of enzyme no, reaction time 3 h): 68.9%
Decomposition efficiency: ratio of each glycoside/aglycon within its isoflavone family (concentrated soybean protein, substrate concentration 30%, heat treatment of enzyme no, reaction time 6 h): 71.4%
Decomposition efficiency: ratio of each glycoside/aglycon within its isoflavone family (concentrated soybean protein, substrate concentration 30%, heat treatment of enzyme yes, reaction time 6 h): 8.2%
Decomposition efficiency: ratio of each glycoside/aglycon within its isoflavone family (defatted soybean, substrate concentration 2%, heat treatment of enzyme no, reaction time 0 h): not detected
Decomposition efficiency: ratio of each glycoside/aglycon within its isoflavone family (defatted soybean, substrate concentration 2%, heat treatment of enzyme no, reaction time 1 h): not detected
Decomposition efficiency: ratio of each glycoside/aglycon within its isoflavone family (defatted soybean, substrate concentration 2%, heat treatment of enzyme no, reaction time 3 h): not detected
Decomposition efficiency: ratio of each glycoside/aglycon within its isoflavone family (defatted soybean, substrate concentration 2%, heat treatment of enzyme no, reaction time 6 h): not detected
Decomposition efficiency: ratio of each glycoside/aglycon within its isoflavone family (defatted soybean, substrate concentration 2%, heat treatment of enzyme yes, reaction time 6 h): not detected
Decomposition efficiency: ratio of each glycoside/aglycon within its isoflavone family (defatted soybean, substrate concentration 5%, heat treatment of enzyme no, reaction time 0 h): 41.6%
Decomposition efficiency: ratio of each glycoside/aglycon within its isoflavone family (defatted soybean, substrate concentration 5%, heat treatment of enzyme no, reaction time 1 h): 58.4%
Decomposition efficiency: ratio of each glycoside/aglycon within its isoflavone family (defatted soybean, substrate concentration 5%, heat treatment of enzyme no, reaction time 3 h): 68.2%
Decomposition efficiency: ratio of each glycoside/aglycon within its isoflavone family (defatted soybean, substrate concentration 5%, heat treatment of enzyme no, reaction time 6 h): 80.5%
Decomposition efficiency: ratio of each glycoside/aglycon within its isoflavone family (defatted soybean, substrate concentration 5%, heat treatment of enzyme yes, reaction time 6 h): 41.5%
Decomposition efficiency: ratio of each glycoside/aglycon within its isoflavone family (defatted soybean, substrate concentration 10%, heat treatment of enzyme no, reaction time 0 h): 47.0%
Decomposition efficiency: ratio of each glycoside/aglycon within its isoflavone family (defatted soybean, substrate concentration 10%, heat treatment of enzyme no, reaction time 1 h): 45.3%
Decomposition efficiency: ratio of each glycoside/aglycon within its isoflavone family (defatted soybean, substrate concentration 10%, heat treatment of enzyme no, reaction time 3 h): 63.4%
Decomposition efficiency: ratio of each glycoside/aglycon within its isoflavone family (defatted soybean, substrate concentration 10%, heat treatment of enzyme no, reaction time 6 h): 72.1%
Decomposition efficiency: ratio of each glycoside/aglycon within its isoflavone family (defatted soybean, substrate concentration 10%, heat treatment of enzyme yes, reaction time 6 h): 42.4%
Decomposition efficiency: ratio of each glycoside/aglycon within its isoflavone family (roasted soy flour, substrate concentration 2%, heat treatment of enzyme no, reaction time 0 h): 16.2%
Decomposition efficiency: ratio of each glycoside/aglycon within its isoflavone family (roasted soy flour, substrate concentration 2%, heat treatment of enzyme no, reaction time 1 h): 100.0%
Decomposition efficiency: ratio of each glycoside/aglycon within its isoflavone family (roasted soy flour, substrate concentration 2%, heat treatment of enzyme no, reaction time 3 h): 100.0%
Decomposition efficiency: ratio of each glycoside/aglycon within its isoflavone family (roasted soy flour, substrate concentration 2%, heat treatment of enzyme no, reaction time 6 h): 100.0%
Decomposition efficiency: ratio of each glycoside/aglycon within its isoflavone family (roasted soy flour, substrate concentration 2%, heat treatment of enzyme yes, reaction time 6 h): 12.2%
Decomposition efficiency: ratio of each glycoside/aglycon within its isoflavone family (roasted soy flour, substrate concentration 5%, heat treatment of enzyme no, reaction time 0 h): 11.4%
Decomposition efficiency: ratio of each glycoside/aglycon within its isoflavone family (roasted soy flour, substrate concentration 5%, heat treatment of enzyme no, reaction time 1 h): 88.2%
Decomposition efficiency: ratio of each glycoside/aglycon within its isoflavone family (roasted soy flour, substrate concentration 5%, heat treatment of enzyme no, reaction time 3 h): 92.8%
Decomposition efficiency: ratio of each glycoside/aglycon within its isoflavone family (roasted soy flour, substrate concentration 5%, heat treatment of enzyme no, reaction time 6 h): 100.0%
Decomposition efficiency: ratio of each glycoside/aglycon within its isoflavone family (roasted soy flour, substrate concentration 5%, heat treatment of enzyme yes, reaction time 6 h): 11.4%
Decomposition efficiency: ratio of each glycoside/aglycon within its isoflavone family (roasted soy flour, substrate concentration 10%, heat treatment of enzyme no, reaction time 0 h): 5.5%
Decomposition efficiency: ratio of each glycoside/aglycon within its isoflavone family (roasted soy flour, substrate concentration 10%, heat treatment of enzyme no, reaction time 1 h): 83.3%
Decomposition efficiency: ratio of each glycoside/aglycon within its isoflavone family (roasted soy flour, substrate concentration 10%, heat treatment of enzyme no, reaction time 3 h): 90.3%
Decomposition efficiency: ratio of each glycoside/aglycon within its isoflavone family (roasted soy flour, substrate concentration 10%, heat treatment of enzyme no, reaction time 6 h): 100.0%
Decomposition efficiency: ratio of each glycoside/aglycon within its isoflavone family (roasted soy flour, substrate concentration 10%, heat treatment of enzyme yes, reaction time 6 h): 9.9%
Decomposition efficiency: ratio of each glycoside/aglycon within its isoflavone family (roasted soy flour, substrate concentration 20%, heat treatment of enzyme no, reaction time 0 h): 8.6%
Decomposition efficiency: ratio of each glycoside/aglycon within its isoflavone family (roasted soy flour, substrate concentration 20%, heat treatment of enzyme no, reaction time 1 h): 77.1%
Decomposition efficiency: ratio of each glycoside/aglycon within its isoflavone family (roasted soy flour, substrate concentration 20%, heat treatment of enzyme no, reaction time 3 h): 86.2%
Decomposition efficiency: ratio of each glycoside/aglycon within its isoflavone family (roasted soy flour, substrate concentration 20%, heat treatment of enzyme no, reaction time 6 h): 90.0%
Decomposition efficiency: ratio of each glycoside/aglycon within its isoflavone family (roasted soy flour, substrate concentration 20%, heat treatment of enzyme yes, reaction time 6 h): 9.1%
Decomposition efficiency: ratio of each glycoside/aglycon within its isoflavone family (roasted soy flour, substrate concentration 30%, heat treatment of enzyme no, reaction time 0 h): 8.8%
Decomposition efficiency: ratio of each glycoside/aglycon within its isoflavone family (roasted soy flour, substrate concentration 30%, heat treatment of enzyme no, reaction time 1 h): 71.6%
Decomposition efficiency: ratio of each glycoside/aglycon within its isoflavone family (roasted soy flour, substrate concentration 30%, heat treatment of enzyme no, reaction time 3 h): 75.6%
Decomposition efficiency: ratio of each glycoside/aglycon within its isoflavone family (roasted soy flour, substrate concentration 30%, heat treatment of enzyme no, reaction time 6 h): 86.3%
Decomposition efficiency: ratio of each glycoside/aglycon within its isoflavone family (roasted soy flour, substrate concentration 30%, heat treatment of enzyme yes, reaction time 6 h): 8.7%
Decomposition efficiency: ratio of each glycoside/aglycon within its isoflavone family (soymilk, substrate concentration 2%, heat treatment of enzyme no, reaction time 0 h): not detected
Decomposition efficiency: ratio of each glycoside/aglycon within its isoflavone family (soymilk, substrate concentration 2%, heat treatment of enzyme no, reaction time 1 h): 100.0%
Decomposition efficiency: ratio of each glycoside/aglycon within its isoflavone family (soymilk, substrate concentration 2%, heat treatment of enzyme no, reaction time 3 h): 100.0%
Decomposition efficiency: ratio of each glycoside/aglycon within its isoflavone family (soymilk, substrate concentration 2%, heat treatment of enzyme no, reaction time 6 h): 100.0%
Decomposition efficiency: ratio of each glycoside/aglycon within its isoflavone family (soymilk, substrate concentration 2%, heat treatment of enzyme yes, reaction time 6 h): not detected
Decomposition efficiency: ratio of each glycoside/aglycon within its isoflavone family (soymilk, substrate concentration 5%, heat treatment of enzyme no, reaction time 0 h): not detected
Decomposition efficiency: ratio of each glycoside/aglycon within its isoflavone family (soymilk, substrate concentration 5%, heat treatment of enzyme no, reaction time 1 h): 75.4%
Decomposition efficiency: ratio of each glycoside/aglycon within its isoflavone family (soymilk, substrate concentration 5%, heat treatment of enzyme no, reaction time 3 h): 92.5%
Decomposition efficiency: ratio of each glycoside/aglycon within its isoflavone family (soymilk, substrate concentration 5%, heat treatment of enzyme no, reaction time 6 h): 100.0%
Decomposition efficiency: ratio of each glycoside/aglycon within its isoflavone family (soymilk, substrate concentration 5%, heat treatment of enzyme yes, reaction time 6 h): not detected
Decomposition efficiency: ratio of each glycoside/aglycon within its isoflavone family (soymilk, substrate concentration 10%, heat treatment of enzyme no, reaction time 0 h): 6.4%
Decomposition efficiency: ratio of each glycoside/aglycon within its isoflavone family (soymilk, substrate concentration 10%, heat treatment of enzyme no, reaction time 1 h): 73.6%
Decomposition efficiency: ratio of each glycoside/aglycon within its isoflavone family (soymilk, substrate concentration 10%, heat treatment of enzyme no, reaction time 3 h): 89.5%
Decomposition efficiency: ratio of each glycoside/aglycon within its isoflavone family (soymilk, substrate concentration 10%, heat treatment of enzyme no, reaction time 6 h): 95.8%
Decomposition efficiency: ratio of each glycoside/aglycon within its isoflavone family (soymilk, substrate concentration 10%, heat treatment of enzyme yes, reaction time 6 h): 6.2%
Decomposition efficiency: ratio of each glycoside/aglycon within its isoflavone family (soymilk, substrate concentration 20%, heat treatment of enzyme no, reaction time 0 h): 6.3%
Decomposition efficiency: ratio of each glycoside/aglycon within its isoflavone family (soymilk, substrate concentration 20%, heat treatment of enzyme no, reaction time 1 h): 72.2%
Decomposition efficiency: ratio of each glycoside/aglycon within its isoflavone family (soymilk, substrate concentration 20%, heat treatment of enzyme no, reaction time 3 h): 90.6%
Decomposition efficiency: ratio of each glycoside/aglycon within its isoflavone family (soymilk, substrate concentration 20%, heat treatment of enzyme no, reaction time 6 h): 94.1%
Decomposition efficiency: ratio of each glycoside/aglycon within its isoflavone family (soymilk, substrate concentration 20%, heat treatment of enzyme yes, reaction time 6 h): 5.7%
Decomposition efficiency: ratio of each glycoside/aglycon within its isoflavone family (soymilk, substrate concentration 30%, heat treatment of enzyme no, reaction time 0 h): 6.1%
Decomposition efficiency: ratio of each glycoside/aglycon within its isoflavone family (soymilk, substrate concentration 30%, heat treatment of enzyme no, reaction time 1 h): 66.9%
Decomposition efficiency: ratio of each glycoside/aglycon within its isoflavone family (soymilk, substrate concentration 30%, heat treatment of enzyme no, reaction time 3 h): 84.1%
Decomposition efficiency: ratio of each glycoside/aglycon within its isoflavone family (soymilk, substrate concentration 30%, heat treatment of enzyme no, reaction time 6 h): 92.3%
Decomposition efficiency: ratio of each glycoside/aglycon within its isoflavone family (soymilk, substrate concentration 30%, heat treatment of enzyme yes, reaction time 6 h): 6.7%
